Results taken from US10617660B2, “Compositions containing benzoate compound and tannic acid for treating central nervous system disorders” (SyneuRx International (Taiwan) Corp., priority 2016, dated 2020).
Entries after “also recorded” stand apart in the source; their conditions may differ.

What was measured:
[1] = system: MK801-treated mice; experiment: Prepulse inhibition test of sensorimotor gating function (MK801-disrupted PPI); type: in vivo
Description: (§1) C57BL/6J male mice were group housed (3-5 mice per cage) with food and water available ad libitum in polysulfone ventilated cages (Alternative Design, AR, USA) in the animal rooms. The colony was maintained on a 12/12-h light/dark cycle at the temperature of 22±2° C. and all behavioral studies will be performed during the dark cycle. All animals used in this study were adult mice (at least 2.5 months of age).
The mice were randomly assigned into ten groups listed below:
Group 9: Sodium benzoate (1000 mg/kg)+MK801
Group 10: Sodium benzoate (200 mg/kg)+MK801
Group 11: Sodium benzoate (600 mg/kg)+MK801
Group 12: Sodium benzoate (200 mg/kg)+Tannic Acid (30 mg/kg)+MK801
Group 13: Sodium benzoate (200 mg/kg)+Tannic Acid (60 mg/kg)+MK801
Group 14: Sodium benzoate (600 mg/kg)+Tannic Acid (10 mg/kg)+MK801
Group 15: Sodium benzoate (600 mg/kg)+Tannic Acid (30 mg/kg)+MK801
Group 16: Sodium benzoate (600 mg/kg)+Tannic Acid (60 mg/kg)+MK801.
Each mouse in Groups 8-16 received an acute administration of MK801 dissolved in normal saline (0.1 mg/kg, i.p.) 20 minutes prior to the behavioral tests. Each mouse in Groups 9-16 received an acute administration of sodium benzoate or sodium benzoate in combination with tannic acid (dissolved in PBS, 10, 30 or 60 mg/kg) via oral gavage 20 minutes prior to the MK801 administration.
The mice were randomly assigned into five groups listed below:
Group 19: Tannic acid_10 mg/kg+MK801
Group 20: Tannic acid_30 mg/kg+MK801
Each mouse in Groups 18-21 received an acute administration of MK-801 (a NMDA receptor antagonist, dissolved in normal saline (0.1 mg/kg, i.p.) 20 minutes prior to behavioral tests. On the other hand, each mouse in Groups 19-21 received an acute administration of tannic acid (dissolved in 30% PEG400 in PBS, 10, 30 or 100 mg/kg) via oral gavage 20 minutes prior to the MK801 administration.
(§2) All mice of cohort 1 in this study were assessed with open field test as described herein. The mice of cohorts 2 and 3 in this study were assessed with prepulse inhibition test as described herein.
Prepulse inhibition was used as an index of sensorimotor gating function using SR-LAB startle apparatus (San Diego Instruments, San Diego, Calif., USA). The startle stimulus was a 40 ms, 120 dB white noise burst. In the pre-pulse (pp)+pulse trials, a 20 ms white noise pre-pulse stimuli of 82 dB (pp10) or 90 dB (pp18) was presented 100 ms before a 40 ms 120 dB pulse. The trials were presented pseudo-randomly and separated by inter-trial interval of 15 s on average (varying between 10 to 20 s) under 72 dB background noise. The percentage of pre-pulse inhibition was evaluated by the following formula: % PPI=100×[(PA score)−(pp-P score)]/(PA score), where the PA score was the average of the PA value in the middle blocks.

[2] = system: MK801-treated mice; experiment: Open field test of spontaneous locomotor activity (MK801-induced hyper-locomotion); type: in vivo; conditions: for effect on MK801-induced hyperactivity (total distance traveled in open field test): oral gavage, cohort 1, FIG. 2
Description: as §1
The mice were randomly assigned into six groups listed below:
Group 3: Sodium benzoate (1000 mg/kg)+MK801
Group 4: Sodium benzoate (200 mg/kg)+MK801 […]
Group 6: Sodium benzoate (200 mg/kg)+Tannic Acid (60 mg/kg)+MK801.
Each mouse in Groups 2-6 received an acute administration of MK801 dissolved in normal saline (0.1 mg/kg, i.p.) 20 minutes prior to the behavioral tests. […]
as §2
The open field test is a common measurement of novelty induced exploratory behavior and general activity in both mice and rats. In this study, mice were placed in a Plexiglas cage (37.5 cm×21.5 cm×18 cm) under 50-65 lux light intensity. Their spontaneous locomotor activities were measured for 60 minutes using the EthoVision video tracking system (Noldus Information Technology, the Netherlands). The travel distance of each mouse was measured as an index of locomotion activity. It generates hyperactivity which is frequently applied as animal models including, but not limited to, schizophrenia, bipolar disorder, attention-deficit hyperactivity disorder, obsessive compulsive disorder, Tourette's syndrome, autism spectrum disorders, Fragile X syndrome, Parkinson's disease, dementia with Lewy bodies, and senile dementia (see Rubia et al., 2010; Sheppard and Bradshaw, 1999; Bent et al., 2014; Powell and Miyakawa, 2006; Nestler and Hyman, 2010; Bubeni{acute over ( )}kova{acute over ( )}-Vales{hacek over ( )}ova et al., 2008; Gobira et al., 2013; Lai et al., 2014; Maio et al., 2014; Sontag et al., 2010; Ding et al., 2014; Walitza et al., 2007; Finestone et al., 1982; Golimstok et al., 2011).

[3] = MK801 0.1 mg/kg i.p., 20 minutes prior to test, model-inducing agent

## C[C@]12N[C@H](Cc3ccccc31)c1ccccc12 [MK801]
[1]; [3]
  effect on prepulse inhibition: impairs prepulse inhibition
[2]; [3]
  effect on locomotion (total distance traveled in open field test): induced hyperactivity

## O=C([O-])c1ccccc1.[Na+] [sodium benzoate]
[1]; sodium benzoate alone 200 mg/kg or 600 mg/kg, oral gavage, cohort 2, prepulse 82 dB and 90 dB
  effect on rescuing MK801-disrupted PPI: did not show much effects
[1]; sodium benzoate alone at 200, 600 or 1000 mg/kg, FIG. 3 legend
  effect on MK801-impaired prepulse inhibition (percentage of pre-pulse inhibition): can be improved
[2]; sodium benzoate 200 mg/kg alone, MK801 0.1 mg/kg i.p.
  effect on MK801-induced hyperactivity (total distance traveled in open field test): less effective
[2]; sodium benzoate 1000 mg/kg alone, MK801 0.1 mg/kg i.p.
  effect on MK801-induced hyperactivity (total distance traveled in open field test): rescued/protected mice from MK801 induced hyper-locomotion more than 200 mg/kg; also recorded: completely prevented

## O=C(OC[C@H]1O[C@@H](OC(=O)c2cc(O)c(O)c(OC(=O)c3cc(O)c(O)c(O)c3)c2)[C@H](OC(=O)c2cc(O)c(O)c(OC(=O)c3cc(O)c(O)c(O)c3)c2)[C@@H](OC(=O)c2cc(O)c(O)c(OC(=O)c3cc(O)c(O)c(O)c3)c2)[C@@H]1OC(=O)c1cc(O)c(O)c(OC(=O)c2cc(O)c(O)c(O)c2)c1)c1cc(O)c(O)c(OC(=O)c2cc(O)c(O)c(O)c2)c1 [tannic acid]
[1]; tannic acid alone 10, 30, 100 mg/kg, oral gavage, MK801 0.1 mg/kg i.p., cohort 3, prepulse 82 dB and 90 dB, FIG. 4
  effect on MK801-disrupted PPI: little or no effects; also recorded: little or no improvement; also recorded: little or no impact
[2]; tannic acid alone, dose not given
  effect on rescuing MK801-induced hyper-locomotion: little or no effect
